Laboratory results: ChEMBL document CHEMBL1201862, “PubChem BioAssay data set” (2004)
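Five compound concentrations were applied to cells in 96-well plates for 48 hours; endpoints were derived by simple linear interpolation of the resulting dose-response curve. GI50 is the concentration that inhibits growth by half.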 Active and inactive are the calls of the source. Cut-off read from the data, not from the text of the source: active = GI50 up to about 1.1 µM and inactive = higher.

Tests used:
Experiment in all cases: inhibition of tumour cell growth, NCI panel, 48 h
[1] = test system: ACHN
[2] = test system: BT-549
[3] = test system: HOP-62
[4] = test system: HOP-92
[5] = test system: HT-29
[6] = test system: IGROV-1
[7] = test system: K562
[8] = test system: KM12
[9] = test system: MDA-N
[10] = test system: NCI-H23
[11] = test system: OVCAR-3
[12] = test system: OVCAR-4
[13] = test system: OVCAR-8
[14] = test system: PC-3
[15] = test system: RXF 393
[16] = test system: SNB-19
[17] = test system: SNB-75
[18] = test system: SR
[19] = test system: SW-620
[20] = test system: TK-10

Measured: GI50

O=C1C=CC(=O)c2c1cc([N+](=O)[O-])c1ccoc21
inactive: [1] 1.82 µM | [2] 16.9 µM | [3] 16.5 µM | [4] 1.96 µM | [5] 17.3 µM | [6] 17.7 µM | [7] 2.75 µM | [8] 15.9 µM | [9] 17.1 µM | [10] 22.6 µM | [11] 11.5 µM | [12] 18.9 µM | [13] 26.2 µM | [14] 15.6 µM | [15] 1.97 µM | [16] 21.5 µM | [17] 26.1 µM | [18] 5.37 µM | [19] 2.36 µM | [20] 2.18 µM

CCOC(=O)N1CCN(c2ccc3c(C)cc(C)nc3n2)CC1
inactive: [1] > 100 µM | [2] > 100 µM | [3] > 100 µM | [4] > 100 µM | [5] > 100 µM | [6] > 100 µM | [7] > 100 µM | [8] > 100 µM | [9] > 100 µM | [10] > 100 µM | [11] > 100 µM | [12] > 100 µM | [13] > 100 µM | [14] > 100 µM | [15] > 100 µM | [16] > 100 µM | [17] > 100 µM | [18] > 100 µM | [19] > 100 µM | [20] > 100 µM

O=C(/C=C/c1ccc(O)c(-c2cc(C(=O)/C=C/c3ccc(O)cc3)c(O)cc2O)c1)c1ccc(O)cc1O [RHUSCHALCONE VI]
inactive: [1] > 50 µM | [2] 15.5 µM | [3] 30.9 µM | [4] 24.6 µM | [5] 10.1 µM | [6] 24.5 µM | [7] 13.6 µM | [8] 13.3 µM | [9] 18.3 µM | [10] 23.9 µM | [11] 16.2 µM | [12] 17.9 µM | [13] 11.7 µM | [14] 22.5 µM | [15] 17.2 µM | [16] 28.6 µM | [17] 13.3 µM | [18] 11.4 µM | [19] 19.5 µM | [20] > 50 µM
